Measured values from the kinase profiling compilation of Christmann-Franck et al. (2016).
Several values for one entry are separate records, joined by “and”; a condition that tells them apart may be missing. Identical values can stand only once.

Key:
Assay in all cases: radiometric filter-binding kinase assay
TTK (human) = TTK (human) (UniProt P33981)
ROCK2 (rat) = conditions: accession and sequence are those of the human protein
EPHA4 (human) = EPHA4 (human) (UniProt P54764)
EPHA2 (human) = EPHA2 (human) (UniProt P29317)
MAP3K5 (human) = MAP3K5 (human) (UniProt Q99683)
YES1 (human) = YES1 (human) (UniProt P07947)
[1] = system: RPS6KB1 (human), P23443 [T412E]
PDPK1 (human) = PDPK1 (human) (UniProt O15530)
PRKAA1 or PRKAA2 (rat) = conditions: accession and sequence are those of the human protein
INSR (human) = INSR (human) (UniProt P06213)
INSR (human), sequence (P06213 whole entry, looked up): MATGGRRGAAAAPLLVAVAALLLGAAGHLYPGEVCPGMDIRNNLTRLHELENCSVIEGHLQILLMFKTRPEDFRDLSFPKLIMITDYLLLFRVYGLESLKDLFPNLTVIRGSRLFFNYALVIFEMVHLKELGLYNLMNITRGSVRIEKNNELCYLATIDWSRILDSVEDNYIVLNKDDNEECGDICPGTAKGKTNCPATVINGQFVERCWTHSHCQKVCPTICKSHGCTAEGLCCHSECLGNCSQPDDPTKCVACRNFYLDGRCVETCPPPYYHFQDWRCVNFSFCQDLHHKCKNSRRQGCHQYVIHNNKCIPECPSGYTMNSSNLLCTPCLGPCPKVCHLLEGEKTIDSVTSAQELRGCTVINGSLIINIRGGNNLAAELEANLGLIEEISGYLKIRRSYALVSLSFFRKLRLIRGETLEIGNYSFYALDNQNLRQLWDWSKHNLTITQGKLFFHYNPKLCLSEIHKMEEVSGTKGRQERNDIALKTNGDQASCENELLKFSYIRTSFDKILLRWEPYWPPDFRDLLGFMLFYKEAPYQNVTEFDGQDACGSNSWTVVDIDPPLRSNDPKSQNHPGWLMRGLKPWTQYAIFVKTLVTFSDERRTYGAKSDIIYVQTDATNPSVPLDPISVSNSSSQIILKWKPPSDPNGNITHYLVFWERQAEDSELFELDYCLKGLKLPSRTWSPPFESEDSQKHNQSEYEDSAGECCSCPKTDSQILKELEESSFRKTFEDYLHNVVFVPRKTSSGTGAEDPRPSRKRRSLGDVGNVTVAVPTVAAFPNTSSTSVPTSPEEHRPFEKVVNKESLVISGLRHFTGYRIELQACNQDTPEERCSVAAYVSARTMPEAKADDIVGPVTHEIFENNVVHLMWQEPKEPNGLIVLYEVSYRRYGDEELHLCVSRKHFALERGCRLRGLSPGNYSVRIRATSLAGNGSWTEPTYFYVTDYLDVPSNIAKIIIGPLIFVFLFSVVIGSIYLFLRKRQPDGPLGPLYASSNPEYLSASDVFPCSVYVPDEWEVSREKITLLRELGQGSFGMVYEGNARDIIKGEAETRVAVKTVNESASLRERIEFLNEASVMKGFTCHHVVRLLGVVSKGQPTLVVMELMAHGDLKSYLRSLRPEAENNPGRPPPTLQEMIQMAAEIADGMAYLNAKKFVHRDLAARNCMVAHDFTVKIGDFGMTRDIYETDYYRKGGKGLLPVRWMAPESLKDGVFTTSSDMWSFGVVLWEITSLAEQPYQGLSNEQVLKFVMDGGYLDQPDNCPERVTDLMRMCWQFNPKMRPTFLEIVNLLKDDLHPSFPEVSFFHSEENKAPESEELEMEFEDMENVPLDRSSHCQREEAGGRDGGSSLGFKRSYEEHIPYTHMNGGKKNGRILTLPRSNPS

IRAK1 (human) = IRAK1 (human) (UniProt P51617)
IRAK1 (human), sequence (P51617 whole entry, looked up): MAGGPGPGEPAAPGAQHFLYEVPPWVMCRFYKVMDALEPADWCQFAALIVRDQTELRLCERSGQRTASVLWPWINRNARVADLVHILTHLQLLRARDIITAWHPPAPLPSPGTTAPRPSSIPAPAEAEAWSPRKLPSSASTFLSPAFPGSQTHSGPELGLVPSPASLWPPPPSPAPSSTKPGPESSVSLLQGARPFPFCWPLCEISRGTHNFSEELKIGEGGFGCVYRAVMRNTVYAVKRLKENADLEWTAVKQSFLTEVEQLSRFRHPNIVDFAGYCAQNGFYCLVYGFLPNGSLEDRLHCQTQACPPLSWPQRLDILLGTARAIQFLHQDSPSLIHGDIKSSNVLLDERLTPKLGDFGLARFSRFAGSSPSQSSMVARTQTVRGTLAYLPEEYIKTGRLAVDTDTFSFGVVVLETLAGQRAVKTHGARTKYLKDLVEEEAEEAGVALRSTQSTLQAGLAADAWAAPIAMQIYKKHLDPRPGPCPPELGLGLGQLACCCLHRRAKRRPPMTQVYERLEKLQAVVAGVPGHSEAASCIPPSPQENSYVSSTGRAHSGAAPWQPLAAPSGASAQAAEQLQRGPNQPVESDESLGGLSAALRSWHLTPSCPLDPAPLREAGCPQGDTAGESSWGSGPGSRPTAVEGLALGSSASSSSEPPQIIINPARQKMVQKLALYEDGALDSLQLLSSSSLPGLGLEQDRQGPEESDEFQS

MST4 (human) = MST4 (human) (UniProt Q9P289)
MST4 (human), sequence (Q9P289 whole entry, looked up): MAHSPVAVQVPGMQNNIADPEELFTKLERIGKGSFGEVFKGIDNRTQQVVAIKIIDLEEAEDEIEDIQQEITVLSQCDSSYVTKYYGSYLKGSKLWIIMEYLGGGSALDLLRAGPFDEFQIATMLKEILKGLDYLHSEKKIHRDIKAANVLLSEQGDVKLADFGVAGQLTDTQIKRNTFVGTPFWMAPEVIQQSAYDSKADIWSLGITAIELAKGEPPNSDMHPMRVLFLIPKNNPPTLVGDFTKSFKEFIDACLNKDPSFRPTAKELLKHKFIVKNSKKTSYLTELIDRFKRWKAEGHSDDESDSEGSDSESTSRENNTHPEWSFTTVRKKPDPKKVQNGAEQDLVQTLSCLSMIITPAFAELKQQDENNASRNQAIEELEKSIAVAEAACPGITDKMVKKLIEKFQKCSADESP

BRSK2 (human) = BRSK2 (human) (UniProt Q8IWQ3)
BRSK2 (human), sequence (Q8IWQ3 whole entry, looked up): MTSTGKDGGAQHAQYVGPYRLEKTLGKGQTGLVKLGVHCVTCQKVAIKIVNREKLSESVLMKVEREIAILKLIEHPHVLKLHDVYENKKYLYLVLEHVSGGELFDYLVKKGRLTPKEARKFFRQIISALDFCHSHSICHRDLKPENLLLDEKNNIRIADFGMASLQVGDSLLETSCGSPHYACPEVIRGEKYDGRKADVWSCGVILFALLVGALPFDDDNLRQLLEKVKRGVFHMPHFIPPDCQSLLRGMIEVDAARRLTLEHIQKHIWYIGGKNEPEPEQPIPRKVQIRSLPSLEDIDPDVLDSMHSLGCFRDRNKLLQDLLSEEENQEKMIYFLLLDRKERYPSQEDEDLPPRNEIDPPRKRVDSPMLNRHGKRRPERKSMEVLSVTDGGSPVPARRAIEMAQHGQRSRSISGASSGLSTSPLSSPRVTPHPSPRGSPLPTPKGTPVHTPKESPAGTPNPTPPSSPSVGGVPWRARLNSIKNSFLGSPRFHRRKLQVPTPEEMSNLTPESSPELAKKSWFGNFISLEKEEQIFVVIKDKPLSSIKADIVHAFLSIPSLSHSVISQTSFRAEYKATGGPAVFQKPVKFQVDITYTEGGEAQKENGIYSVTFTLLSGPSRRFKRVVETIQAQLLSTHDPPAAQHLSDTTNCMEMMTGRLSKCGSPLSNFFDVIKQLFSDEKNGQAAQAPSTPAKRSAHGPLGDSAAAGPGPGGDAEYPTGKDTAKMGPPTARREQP

HIPK2 (human) = HIPK2 (human) (UniProt Q9H2X6)
SYK (human) = SYK (human) (UniProt P43405)
DAPK1 (human) = DAPK1 (human) (UniProt P53355)
IGF1R (human) = IGF1R (human) (UniProt P08069)
IGF1R (human), sequence (P08069 whole entry, looked up): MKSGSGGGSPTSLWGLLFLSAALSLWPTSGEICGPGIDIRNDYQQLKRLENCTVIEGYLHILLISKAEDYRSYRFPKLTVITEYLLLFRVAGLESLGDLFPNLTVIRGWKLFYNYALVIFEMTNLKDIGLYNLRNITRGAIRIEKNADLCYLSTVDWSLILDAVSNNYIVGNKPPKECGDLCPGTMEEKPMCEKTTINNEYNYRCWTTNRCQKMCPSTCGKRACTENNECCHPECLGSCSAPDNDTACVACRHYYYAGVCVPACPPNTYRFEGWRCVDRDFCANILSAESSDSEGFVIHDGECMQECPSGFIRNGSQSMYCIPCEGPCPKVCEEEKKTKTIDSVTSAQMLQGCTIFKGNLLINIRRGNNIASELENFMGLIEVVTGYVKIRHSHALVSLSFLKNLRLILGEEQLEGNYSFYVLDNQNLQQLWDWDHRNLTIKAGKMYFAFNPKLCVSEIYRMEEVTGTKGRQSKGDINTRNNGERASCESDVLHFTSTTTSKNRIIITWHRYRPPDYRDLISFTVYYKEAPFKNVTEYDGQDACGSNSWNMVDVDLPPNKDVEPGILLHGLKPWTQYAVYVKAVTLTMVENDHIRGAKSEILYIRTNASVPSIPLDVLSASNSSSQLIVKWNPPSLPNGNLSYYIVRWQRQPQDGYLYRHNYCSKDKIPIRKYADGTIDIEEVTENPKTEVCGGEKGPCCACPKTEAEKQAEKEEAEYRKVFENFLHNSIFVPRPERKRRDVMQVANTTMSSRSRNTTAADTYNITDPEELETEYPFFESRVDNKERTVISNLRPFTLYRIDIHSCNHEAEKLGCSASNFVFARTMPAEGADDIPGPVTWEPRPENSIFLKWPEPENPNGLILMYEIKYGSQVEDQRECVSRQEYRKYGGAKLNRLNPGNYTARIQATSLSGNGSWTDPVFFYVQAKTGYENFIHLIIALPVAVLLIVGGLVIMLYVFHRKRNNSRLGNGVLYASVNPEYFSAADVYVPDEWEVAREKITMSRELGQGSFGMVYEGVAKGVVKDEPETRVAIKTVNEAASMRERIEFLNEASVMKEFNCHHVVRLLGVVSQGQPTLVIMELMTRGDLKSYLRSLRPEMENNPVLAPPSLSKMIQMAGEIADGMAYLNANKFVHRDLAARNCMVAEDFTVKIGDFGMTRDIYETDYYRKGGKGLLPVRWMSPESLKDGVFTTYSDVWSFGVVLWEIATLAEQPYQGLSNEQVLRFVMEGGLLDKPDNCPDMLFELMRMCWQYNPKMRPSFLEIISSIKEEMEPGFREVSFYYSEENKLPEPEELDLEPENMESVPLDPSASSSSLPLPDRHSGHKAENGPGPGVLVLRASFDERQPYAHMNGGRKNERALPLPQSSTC

RIPK2 (human) = RIPK2 (human) (UniProt O43353)
MARK1 (human) = MARK1 (human) (UniProt Q9P0L2)
PRKCZ (human) = PRKCZ (human) (UniProt Q05513)
PRKCA (human) = PRKCA (human) (UniProt P17252)

## CCN1CCN(Cc2ccc(NC(=O)c3ccc(C)c(Oc4ccnc5[nH]ccc45)c3)cc2C(F)(F)F)CC1
TTK (human); compound 0.1 µM
  residual activity: 91.2%
TTK (human); compound 1.0 µM
  residual activity: 98.1%
TTK (human); compound 10.0 µM
  residual activity: 66.1%
ROCK2 (rat); compound 0.1 µM
  residual activity: 91.7%
ROCK2 (rat); compound 1.0 µM
  residual activity: 71.2%
ROCK2 (rat); compound 10.0 µM
  residual activity: 25.5%
EPHA4 (human); compound 0.1 µM
  residual activity: 96.3%
EPHA4 (human); compound 1.0 µM
  residual activity: 28.7%
EPHA4 (human); compound 10.0 µM
  residual activity: 7.58%
EPHA2 (human); compound 0.1 µM
  residual activity: 74%
EPHA2 (human); compound 1.0 µM
  residual activity: 19.5%
EPHA2 (human); compound 10.0 µM
  residual activity: 13.7%
MAP3K5 (human); compound 0.1 µM
  residual activity: 111%
MAP3K5 (human); compound 1.0 µM
  residual activity: 105%
MAP3K5 (human); compound 10.0 µM
  residual activity: 76.5%
YES1 (human); compound 0.1 µM
  residual activity: 52.9%
YES1 (human); compound 1.0 µM
  residual activity: 9.77%
YES1 (human); compound 10.0 µM
  residual activity: 10.6%
[1]; compound 0.1 µM
  residual activity: 107%
[1]; compound 1.0 µM
  residual activity: 63.6%
[1]; compound 10.0 µM
  residual activity: 12.9%
PDPK1 (human); compound 0.1 µM
  residual activity: 101% and 98%
PDPK1 (human); compound 1.0 µM
  residual activity: 100% and 86.1%
PRKAA1 or PRKAA2 (rat); compound 0.1 µM
  residual activity: 106%
PRKAA1 or PRKAA2 (rat); compound 1.0 µM
  residual activity: 91.7%
PRKAA1 or PRKAA2 (rat); compound 10.0 µM
  residual activity: 85.2%
INSR (human); compound 0.1 µM
  residual activity: 86.1%
INSR (human); compound 1.0 µM
  residual activity: 81.6%
INSR (human); compound 10.0 µM
  residual activity: 18%
IRAK1 (human); compound 0.1 µM
  residual activity: 80.9%
IRAK1 (human); compound 1.0 µM
  residual activity: 72.2%
IRAK1 (human); compound 10.0 µM
  residual activity: 33.4%
MST4 (human); compound 0.1 µM
  residual activity: 95%
MST4 (human); compound 1.0 µM
  residual activity: 78%
MST4 (human); compound 10.0 µM
  residual activity: 32.1%
BRSK2 (human); compound 0.1 µM
  residual activity: 100%
BRSK2 (human); compound 1.0 µM
  residual activity: 94.8%
BRSK2 (human); compound 10.0 µM
  residual activity: 88.8%
HIPK2 (human); compound 0.1 µM
  residual activity: 105%
HIPK2 (human); compound 1.0 µM
  residual activity: 60.3%
HIPK2 (human); compound 10.0 µM
  residual activity: 12.6%
SYK (human); compound 0.1 µM
  residual activity: 103%
SYK (human); compound 1.0 µM
  residual activity: 47.1%
SYK (human); compound 10.0 µM
  residual activity: 11.5%
DAPK1 (human); compound 1.0 µM
  residual activity: 80.9%
DAPK1 (human); compound 10.0 µM
  residual activity: 84.1%
IGF1R (human); compound 0.1 µM
  residual activity: 107%
IGF1R (human); compound 1.0 µM
  residual activity: 84.8%
IGF1R (human); compound 10.0 µM
  residual activity: 6.46%
RIPK2 (human); compound 0.1 µM
  residual activity: 103%
RIPK2 (human); compound 1.0 µM
  residual activity: 78.9%
RIPK2 (human); compound 10.0 µM
  residual activity: 13.5%
MARK1 (human); compound 0.1 µM
  residual activity: 114%
MARK1 (human); compound 1.0 µM
  residual activity: 97.2%
MARK1 (human); compound 10.0 µM
  residual activity: 103%
PRKCZ (human); compound 0.1 µM
  residual activity: 99.4%
PRKCZ (human); compound 1.0 µM
  residual activity: 96%
PRKCZ (human); compound 10.0 µM
  residual activity: 92.7%
PRKCA (human); compound 0.1 µM
  residual activity: 94%
PRKCA (human); compound 1.0 µM
  residual activity: 84.4%
PRKCA (human); compound 10.0 µM
  residual activity: 90.5%
